Experimental data as given in the NIST ThermoML archive (doi:10.1016/j.jct.2016.02.016).

Test: xn = mol fraction of the nth substance listed
Conditions: 100 kPa, Liquid; for speed of sound: Frequency=3 MHz, Sing-around technique in a fixed-path interferometer; for mass density: Vibrating tube method

CC(C)=O [acetone] + CN(C)C=O
Conditions	mass density, 293.15 K [kg/m3]	mass density, 298.15 K [kg/m3]	speed of sound, 293.15 K [m/s]	speed of sound, 298.15 K [m/s]
x2 = 0	790.19	784.43	1183.6	1163.6
x2 = 0.05	–	793.781	–	1180.1
x2 = 0.0503	799.565	–	1200.1	–
x2 = 0.1057	809.645	–	1218	–
x2 = 0.127	–	807.814	–	1205.5
x2 = 0.1485	–	811.673	–	1212.5
x2 = 0.1529	818.017	–	1232.9	–
x2 = 0.1908	–	819.252	–	1226.2
x2 = 0.1992	826.191	–	1247.6	–
x2 = 0.2475	834.489	–	1262.6	–
x2 = 0.2492	–	829.349	–	1244.6
x2 = 0.297	–	837.55	–	1259.6
x2 = 0.2981	843.136	–	1278.3	–
x2 = 0.3399	–	844.898	–	1273.1
x2 = 0.3458	851.059	–	1292.6	–
x2 = 0.3942	859.037	–	1307.4	–
x2 = 0.3997	–	854.838	–	1291.5
x2 = 0.4461	–	862.361	–	1305.3
x2 = 0.4516	868.376	–	1324.6	–
x2 = 0.4973	875.647	–	1338.1	–
x2 = 0.4978	–	870.632	–	1320.8
x2 = 0.5476	883.523	–	1352.9	–
x2 = 0.549	–	878.71	–	1336.2
x2 = 0.5893	–	884.968	–	1348.1
x2 = 0.599	891.359	–	1367.5	–
x2 = 0.6413	–	892.941	–	1363.3
x2 = 0.6521	899.454	–	1382.9	–
x2 = 0.6822	–	898.928	–	1374.7
x2 = 0.7051	907.302	–	1397.8	–
x2 = 0.7435	–	908.066	–	1392.3
x2 = 0.7538	914.504	–	1411.4	–
x2 = 0.7945	–	915.398	–	1406.4
x2 = 0.8063	921.993	–	1425.7	–
x2 = 0.8342	–	921.109	–	1417.5
x2 = 0.8441	927.346	–	1436	–
x2 = 0.8801	–	927.621	–	1430.1
x2 = 0.9022	935.518	–	1451.7	–
x2 = 0.9377	–	935.649	–	1445.8
x2 = 0.9471	941.723	–	1463.7	–
